According to ChEMBL document CHEMBL1201862, “PubChem BioAssay data set” (2004):
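Compound exposure: 48 hours, 5 concentrations, 96-well plates. The concentration for 50% growth inhibition is given as GI50.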 The source made the active and inactive calls. Cut-off read from the data, not from the text of the source: active = GI50 up to about 1.1 µM and inactive = higher.

Columns and labels:
Experiment in all cases: growth of human tumour cells (NCI), 48 h
SK-MEL-5 = test system: SK-MEL-5
U-251 = test system: U-251
HCT-15 = test system: HCT-15
KM-20L2 = test system: KM-20L2
SF-295 = test system: SF-295
Malme-3M = test system: Malme-3M
SF-539 = test system: SF-539
MOLT-4 = test system: MOLT-4
SW-620 = test system: SW-620
SNB-75 = test system: SNB-75
OVCAR-3 = test system: OVCAR-3
HCC 2998 = test system: HCC 2998
COLO 205 = test system: COLO 205
CAKI-1 = test system: CAKI-1
HL-60 = test system: HL-60
A549 = test system: A549
HCT-116 = test system: HCT-116
SR = test system: SR
MDA-MB-435 = test system: MDA-MB-435
Hs-578T = test system: Hs-578T

SMILES	GI50 (SK-MEL-5)	GI50 (U-251)	GI50 (HCT-15)	GI50 (KM-20L2)	GI50 (SF-295)	GI50 (Malme-3M)	GI50 (SF-539)	GI50 (MOLT-4)	GI50 (SW-620)	GI50 (SNB-75)	GI50 (OVCAR-3)	GI50 (HCC 2998)	GI50 (COLO 205)	GI50 (CAKI-1)	GI50 (HL-60)	GI50 (A549)	GI50 (HCT-116)	GI50 (SR)	GI50 (MDA-MB-435)	GI50 (Hs-578T)
COc1ccc(S(=O)(=O)N(C)CC(=O)O)cc1	> 100 µM (inactive)	> 100 µM (inactive)	> 100 µM	> 100 µM (inactive)	> 100 µM (inactive)	> 100 µM (inactive)	> 100 µM (inactive)	> 100 µM (inactive)	> 100 µM (inactive)	> 100 µM (inactive)	> 100 µM (inactive)	> 100 µM (inactive)	> 100 µM (inactive)	> 100 µM (inactive)	> 100 µM (inactive)	> 100 µM (inactive)	–	–	–	–
Cc1ccc(C(=O)/C=C/c2ccccc2O)c(C)c1	> 100 µM (inactive)	> 100 µM (inactive)	> 100 µM	> 100 µM (inactive)	> 100 µM (inactive)	> 100 µM (inactive)	> 100 µM (inactive)	94.8 µM (inactive)	> 100 µM (inactive)	1.24 µM (inactive)	> 100 µM (inactive)	> 100 µM (inactive)	> 100 µM (inactive)	> 100 µM (inactive)	> 100 µM (inactive)	> 100 µM (inactive)	> 100 µM (inactive)	–	–	–
O=C1Nc2ccccc2C1(O)C/C(=N/O)c1ccc2ccccc2c1 (stereo not drawn)	–	86.5 µM (inactive)	> 100 µM	> 100 µM (inactive)	> 100 µM (inactive)	> 100 µM (inactive)	> 100 µM (inactive)	64.9 µM (inactive)	> 100 µM (inactive)	28.6 µM (inactive)	> 100 µM (inactive)	> 100 µM (inactive)	> 100 µM (inactive)	–	41.8 µM (inactive)	> 100 µM (inactive)	> 100 µM (inactive)	–	–	–
Cc1cc(NC(=O)C2C3C=CC(O3)C2C(=O)O)no1 (stereo not drawn)	> 100 µM (inactive)	21.3 µM (inactive)	18.5 µM	13.7 µM (inactive)	> 100 µM (inactive)	> 100 µM (inactive)	24 µM (inactive)	32.6 µM (inactive)	1.5 µM (inactive)	> 100 µM (inactive)	> 100 µM (inactive)	> 100 µM (inactive)	17.7 µM (inactive)	–	23.5 µM (inactive)	34.8 µM (inactive)	17 µM (inactive)	21.8 µM (inactive)	–	–
C=CC[C@H]1[C@@H](O[Si](C)(C)C(C)(C)C)[C@H](n2ccc(=O)[nH]c2=O)O[C@@H]1CO[Si](C)(C)C(C)(C)C	1.72 µM (inactive)	2.09 µM (inactive)	1.77 µM	–	1.98 µM (inactive)	2.89 µM (inactive)	4.19 µM (inactive)	1.99 µM (inactive)	1.82 µM (inactive)	1.34 µM (inactive)	1.52 µM (inactive)	1.93 µM (inactive)	1.79 µM (inactive)	2.23 µM (inactive)	0.971 µM (active)	1.85 µM (inactive)	1.47 µM (inactive)	2.44 µM (inactive)	2 µM (inactive)	3.01 µM (inactive)
Cc1ccc(S(=O)(=O)OC2CC=CC2)cc1	> 100 µM (inactive)	> 100 µM (inactive)	> 100 µM	> 100 µM (inactive)	> 100 µM (inactive)	> 100 µM (inactive)	–	> 100 µM (inactive)	> 100 µM (inactive)	> 100 µM (inactive)	> 100 µM (inactive)	> 100 µM (inactive)	> 100 µM (inactive)	> 100 µM (inactive)	> 100 µM (inactive)	> 100 µM (inactive)	> 100 µM (inactive)	–	–	–
CC(C)c1cc2c(O)c(c1)Cc1cc(C(C)C)cc(c1O)Cc1cc(C(C)C)cc(c1O)Cc1cc(C(C)C)cc(c1O)C2	> 100 µM (inactive)	> 100 µM (inactive)	> 100 µM	> 100 µM (inactive)	> 100 µM (inactive)	> 100 µM (inactive)	> 100 µM (inactive)	> 100 µM (inactive)	> 100 µM (inactive)	> 100 µM (inactive)	> 100 µM (inactive)	–	> 100 µM (inactive)	> 100 µM (inactive)	> 100 µM (inactive)	> 100 µM (inactive)	> 100 µM (inactive)	> 100 µM (inactive)	–	–
O=C1NC(=O)C(CCC(=O)c2ccc3ccccc3c2)C(=O)N1	> 100 µM (inactive)	> 100 µM (inactive)	> 100 µM	> 100 µM (inactive)	> 100 µM (inactive)	> 100 µM (inactive)	> 100 µM (inactive)	> 100 µM (inactive)	> 100 µM (inactive)	> 100 µM (inactive)	> 100 µM (inactive)	> 100 µM (inactive)	> 100 µM (inactive)	> 100 µM (inactive)	> 100 µM (inactive)	> 100 µM (inactive)	> 100 µM (inactive)	> 100 µM (inactive)	–	–
COc1cc2oc(-c3ccc(O)cc3)c(OC3OC(C)C(O)C(O)C3O)c(=O)c2c(O)c1OC (stereo not drawn)	45.1 µM (inactive)	89.5 µM (inactive)	> 100 µM	–	> 100 µM (inactive)	96.2 µM (inactive)	> 100 µM (inactive)	33 µM (inactive)	92.7 µM (inactive)	> 100 µM (inactive)	> 100 µM (inactive)	> 100 µM (inactive)	> 100 µM (inactive)	> 100 µM (inactive)	32.9 µM (inactive)	79.6 µM (inactive)	80.4 µM (inactive)	27 µM (inactive)	> 100 µM (inactive)	> 100 µM (inactive)
CC(=O)NNc1nc(C)c(C(=O)NNC(=O)C(=O)Nc2c([N+](=O)[O-])ccc(C)c2C)s1	> 100 µM (inactive)	> 100 µM (inactive)	> 100 µM	> 100 µM (inactive)	> 100 µM (inactive)	> 100 µM (inactive)	> 100 µM (inactive)	43.6 µM (inactive)	76.9 µM (inactive)	–	> 100 µM (inactive)	> 100 µM (inactive)	> 100 µM (inactive)	> 100 µM (inactive)	> 100 µM (inactive)	> 100 µM (inactive)	> 100 µM (inactive)	92.3 µM (inactive)	–	–
COc1cc(C2C(C(=O)O)=C(C)Oc3cc4c(cc32)OCO4)cc(OC)c1OC (stereo not drawn)	23.1 µM (inactive)	36.6 µM (inactive)	18.5 µM	32.4 µM (inactive)	17.3 µM (inactive)	32.1 µM (inactive)	–	21.3 µM (inactive)	33.7 µM (inactive)	14.6 µM (inactive)	19.3 µM (inactive)	–	23.9 µM (inactive)	9.04 µM (inactive)	15.7 µM (inactive)	45 µM (inactive)	37.1 µM (inactive)	–	–	–
CC(O)CN1C(=O)NC(Cc2ccccc2)C1=O (stereo not drawn)	–	> 100 µM (inactive)	–	> 100 µM (inactive)	> 100 µM (inactive)	–	> 100 µM (inactive)	–	> 100 µM (inactive)	> 100 µM (inactive)	–	> 100 µM (inactive)	> 100 µM (inactive)	> 100 µM (inactive)	> 100 µM (inactive)	> 100 µM (inactive)	–	> 100 µM (inactive)	–	–
Cc1cc2c(c(C(N)=O)c1C)-c1ccccc1C2=O	–	> 100 µM (inactive)	> 100 µM	> 100 µM (inactive)	> 100 µM (inactive)	> 100 µM (inactive)	> 100 µM (inactive)	> 100 µM (inactive)	> 100 µM (inactive)	83.2 µM (inactive)	> 100 µM (inactive)	> 100 µM (inactive)	> 100 µM (inactive)	–	> 100 µM (inactive)	> 100 µM (inactive)	> 100 µM (inactive)	–	–	–
COc1ccccc1N1C(=O)/C(=C/c2ccc(N(CCC#N)CCC#N)cc2C)N=C1c1cc([N+](=O)[O-])ccc1Cl	> 100 µM (inactive)	> 100 µM (inactive)	> 100 µM	> 100 µM (inactive)	> 100 µM (inactive)	> 100 µM (inactive)	> 100 µM (inactive)	> 100 µM (inactive)	–	> 100 µM (inactive)	> 100 µM (inactive)	> 100 µM (inactive)	> 100 µM (inactive)	> 100 µM (inactive)	> 100 µM (inactive)	> 100 µM (inactive)	> 100 µM (inactive)	> 100 µM (inactive)	–	–
CC(=O)Nc1cc(N(CCOS(C)(=O)=O)CCOS(C)(=O)=O)ccc1N=O	> 100 µM (inactive)	> 100 µM (inactive)	> 100 µM	> 100 µM (inactive)	> 100 µM (inactive)	> 100 µM (inactive)	> 100 µM (inactive)	> 100 µM (inactive)	> 100 µM (inactive)	> 100 µM (inactive)	> 100 µM (inactive)	> 100 µM (inactive)	> 100 µM (inactive)	> 100 µM (inactive)	> 100 µM (inactive)	> 100 µM (inactive)	> 100 µM (inactive)	> 100 µM (inactive)	–	–
OCCCOC(c1ccccc1)(c1ccccc1)c1ccccc1	> 100 µM (inactive)	51.5 µM (inactive)	> 100 µM	> 100 µM (inactive)	82.6 µM (inactive)	> 100 µM (inactive)	> 100 µM (inactive)	93.3 µM (inactive)	> 100 µM (inactive)	20.1 µM (inactive)	> 100 µM (inactive)	> 100 µM (inactive)	> 100 µM (inactive)	> 100 µM (inactive)	> 100 µM (inactive)	> 100 µM (inactive)	50.7 µM (inactive)	> 100 µM (inactive)	–	–
COc1cccc(SSc2cccc(OC)c2C(=O)O)c1C(=O)O	> 100 µM (inactive)	> 100 µM (inactive)	> 100 µM	> 100 µM (inactive)	> 100 µM (inactive)	> 100 µM (inactive)	> 100 µM (inactive)	> 100 µM (inactive)	> 100 µM (inactive)	> 100 µM (inactive)	> 100 µM (inactive)	–	> 100 µM (inactive)	> 100 µM (inactive)	> 100 µM (inactive)	> 100 µM (inactive)	> 100 µM (inactive)	> 100 µM (inactive)	–	–
